Results reported in US4427671A, “Steroids esterified in position 17 and thioesterified in position 21, a process for preparing them and their use as medicaments” (priority 1981, dated 1984).

Columns and labels:
Format in all cases: in vivo, male Sprague-Dawley I.O.P.S. rats
granuloma = experiment: Local anti-inflammatory activity: inhibition of granuloma formation around implanted cotton wool pellet; conditions: Table 1
Procedure: A. Winter and C. C. Porter (J. Am. Pharm. Ass. 1957, 46, 9, pages 515-519).
(§1) The principle of the test consists in implanting a pellet of cotton wool in the dorsal subcutaneous tissue of the animal. The corticoids to be studied are added to the pellet so that the following tests can be carried out:
(1) Determination of the local anti-inflammatory activity
The presence of products within the pellet may inhibit or prevent the formation of a granuloma.
(§2) The animals are divided into random homogeneous groups of 10 male Sprague-Dawley I.O.P.S. rats with a body weight of between 100 and 120 grams.
(§3) The pellets to be implanted weigh from 35 to 40 mg and are prepared from balls of dental cotton wool. Before being inserted, each pellet is weighed and impregnated with the precise quantity of the product which is to be studied, dissolved in 0.2 ml of chloroform. The chloroform is eliminated by evaporation over a period of 24 hours at ambient temperature.
(§4) Before implantation, each pellet is impregnated with a solution of antibiotics:
Streptomycin 0.1 gram/ml.
(§5) The animals are anaesthetised with ether, and then two pellets are implanted in each animal in the dorsal subcutaneous tissue, on each side of the median line:
(§6) on the left, the pellet containing the product to be tested (treated animal) or the carrier only (control animal);
(§7) on the right, the pellet containing the carrier only.
(§8) The animals are given normal food and are sacrificed six days after the pellets have been implanted.
(1) Local anti-inflammatory activity
The pellets surrounded by granulomatous tissue are carefully removed and weighed, and then dried until a constant weight is obtained.
The relative activity of the test products compared with betamethasone 17,21-dipropionate is calculated according to the following equation: [formula]

thymus = experiment: Systemic activity after local administration: effect on the weight of the thymus; conditions: rat, in vivo, 8640 min
Procedure: (§9) The pharmacological activity of the products described in the invention was tested in the rat using a technique similar to that described by C. A. Winter and C. C. Porter (J. Am. Pharm. Ass. 1957, 46, 9, pages 515-519).
as §1
(§10) (2) Determination of the systemic activity of the products after local administration
(§11) Local application of the corticoids may result, inter alia, in:
(a) a reduction in the defence systems of the organism, the most notable sign of which is a reduction in the weight of the animals' thymuses.
as §2, §3, §4, §5, §6, §7, §8
(2) Determination of the systemic effect
The thymuses are taken from the same animals and weighed. Using the same type of calculation, an ED 50 is determined, which corresponds to the dosage of product resulting in a 50% decrease in weight of the thymuses, compared with the control animals.

[1] = Systemic activity after local administration: effect on weight gain; conditions: rat, in vivo, 8640 min
Procedure: as §9, §1, §10, §11
(b) Disruption of the protein metabolism which causes tissue fusion, resulting in an inhibition of the weight increase in animals.
as §2, §3, §4, §5, §6, §7, §8
(b) Effect on weight gain
The weight gain over six days is determined on the animals before they are sacrificed.
The activity of the products was expressed as the percentage inhibition in the weight gain of the treated animals compared with the weight gain in the control animals.
The ED 30 which corresponds to a 30% inhibition in the weight gain was determined.

CCCCC(=O)OC1(C(=O)CSC(C)=O)C(C)CC2C3CCC4=CC(=O)C=CC4(C)C3(Cl)C(O)CC21C (stereo not drawn) [Ex. 17, 9α-chloro-11β-hydroxy-16β-methyl-pregna-1,4-diene-3,20-dione (or beclomethasone) 17-valerate, 21-thioacetate]
R 1 (relative local anti-inflammatory activity compared with betamethasone 17,21-dipropionate) (granuloma; D.P.B. = 1, calculated from ED50): 8.9 | ED50 (local anti-inflammatory activity, 50% inhibition in granuloma weight) (granuloma; rat, cotton pellet granuloma, six days after implantation): 0.180 mg/pellet | ED50 (50% decrease in weight of the thymuses) (thymus): > 1 mg/pellet | R 2 (relative effect on thymus weight compared with D.P.B.) (thymus): < 0.86 | ED30 (30% inhibition in the weight gain) [1]: > 1.0 mg/pellet | R 3 (relative activity on weight gain compared with D.P.B.) [1]: < 0.8
